Measured values published in patent EP3474833B1, “CINNAMYL ALCOHOL DERIVATIVE FOR USE IN REDUCING APPETITE AND FOR GENERATING THE FEELING OF BEING FULL” (Symrise AG, priority 2016, dated 2017).

Test system: humane Neuroblastomazellen (SH-SY5Y, ATCC Nummer CRL-2266)
Assay: Serotonin release in SH-SY5Y neuroblastoma cells (Serotonin-ELISA)
Format: cell-based, human
Details: SH-SY5Y-Zellen, 10 µM test substance, 5 min stimulation, Krebs-Ringer-HEPES Puffer pH 6,2; relative to 10 µM Nonivamid
Protocol: Als Zellmodell für die Ausschüttung des Neurotransmitters Serotonin werden humane Neuroblastomazellen (SH-SY5Y, ATCC Nummer CRL-2266) verwendet. Die Kultivierung erfolgt bei 37 °C und 5 % CO2-Gehalt mit einer Mischung, die zu gleichen Teilen aus Eagle's Minimum Essential Medium (EMEM) und F12 Medium (jeweils mit 10 % FBS und 1 % Penicillin/Streptomycin) besteht. Zur Bestimmung der Serotoninfreisetzung werden die Zellen mit Trypsin geerntet und nach einer Vitalitätsprüfung durch Trypanblaufärbung in definierter Zellzahl in 24-well Platten (Corning cell culture treated) ausgesät.
Nach 5-minütiger Stimulierung von 90.000 humanen Neuroblastomazellen (SH SY5Y) mit 60 µl Krebs-Ringer-HEPES Puffer, 0,1 % Ascorbinsäure, pH 6,2, mit oder ohne Zusatz von 10 µM einer der Verbindungen 1-4, , bzw. 10 µM Nonivamid als Positivkontrolle wird der Serotoningehalt mit Hilfe eines enzymbasierten Nachweisverfahrens (Serotonin-ELISA sensitiv, DLD Diagnostica, Hamburg, Deutschland) ermittelt. Tabelle 1. Serotonin-Freisetzung in SH-SY5Y-Zellen nach Stimulierung mit je 10 µM von Verbindungen nach Formel I.

Structure (SMILES) | Serotoninfreisetzung [% der Positivkontrolle]
CCCCCCCCC(=O)NCc1ccc(O)c(OC)c1 [Nonivamid, N-Nonanoylvanillylamin, reference compound] | 100
OCC=Cc1ccccc1 [Verbindung 1, Cinnamylalkohol] | 129.29
CCC(=O)OCC=Cc1ccccc1 [Verbindung 4, Cinnamylpropionat] | 115.57
CC(C)C(=O)OCC=Cc1ccccc1 [Verbindung 6, Cinnamylisobutyrat] | 120.69
CC(C)CC(=O)OC/C=C/c1ccccc1 [Verbindung 7, Cinnamylisovalerianat] | 118.47
O=C(C=Cc1ccccc1)OCC=Cc1ccccc1 [Verbindung 11, Cinnamylcinnamat] | 120.83
